In US6395896B2, “Pyridazine derivatives, manufacturing method and related composition” (Shiseido Co., Ltd., priority 1999, dated 2002):

How the values were obtained:
sunburn = assay: Ultraviolet rays prevention effect test on a beach (lotion and cream samples); assay type: in vivo, human
Procedure: The prevention effect test was carried out on a beach during the summer. Equal amounts of sample were applied to the right and left sides of the backs of test subjects. After direct sunlight exposure, the degree of sunburn was evaluated in accordance with the following criteria. Each group consisted of 20 subjects. (Criterion) Remarkable effect: None or almost no sunburn symptom was found. Positive effect: Slight sunburn symptom was found. Negative effect: Strong sunburn symptom was found. (Evaluation) A: Subject of remarkable effect or positive effect is 80% or more. B: Subject of remarkable effect or positive effect is 50% or more and less than 80%. C: Subject of remarkable effect or positive effect is 30% or more and less than 50%. D: Subject of remarkable effect or positive effect is less than 30% (ii) Preparation of sample (A) Lotion [table] Each of water phase and alcohol phase was prepared. Then each was mixed. (B) Cream [table] The propylene glycol was added to ion-exchanged water and was dissolved, which was kept at 70° C. by heating (Water phase). The other components were mixed and melted by heating and was kept at 70° C. (Oil phase). The oil phase was added to the water phase, and an emulsion was formed.. After it was homogeneously emulsified with a homogenixer, it was cooled at 30° C. with stirring well.

[1] = Drug stabilization effect (photostabilizer, sunlight exposure); design: key to Sunlight exposure (80 MJ) Appearance: A: No change; B: No almost change; C: Yes change; conditions: for Sunlight exposure (80 MJ) Appearance / Sunlight exposure (80 MJ) Residual yield [%]: photostabilizer 0.05, amounts wt %
Procedure: Next, the photo stabilization effect and changes in appearance in drug compositions were studied according to the following evaluation formulation.
Each test sample was prepared. Appearance changes of the samples exposed to sunlight (80 MJ) was observed (visual evaluation). Also, residual yield was measured by liquid chromatography.

[2] = Perfume stabilization effect (sequestering agent combination); design: key to Sunlight exposure (80 MJ) Smell evaluation: A: No change; B: No almost change; C: Yes change; conditions: for smell change: with a sequestering agent, compared with compositions without; for Sunlight exposure (80 MJ) Smell evaluation: amounts wt %
Procedure: Next, for combinations with sequestering agent, photostabilization effect for each perfume was studied by the following evaluation formulation.
Each test sample was prepared. Smell change of samples exposed to sunlight (80 MJ) was observed (judgement by perfumier).

[3] = drug 2-o-α-α-glucopyranosyl-L-ascorbic acid 2.0
[4] = drug Dibutylhydroxytoluene 0.01
[5] = drug Dipotassium glycyrrhizinate 0.05
[6] = drug L-ascorbic acid 2-(dl-α-tocopheryl hydrogen phosphate) potassium salt 0.01
[7] = drug combined with photostabilizer, sunlight 80 MJ, summary of Table 23

Oc1nncc(N2CCOCC2)c1N1CCOCC1 [4,5-Dimorpholino-3-hydroxypyridazine]
UV prevent effect (sunburn; Cream, ultraviolet absorbent 0.0005 wt %): C (Subject of remarkable effect or positive effect is 30% or more and less than 50%.)
UV prevent effect (sunburn; Cream, ultraviolet absorbent 0.001 wt %): B (Subject of remarkable effect or positive effect is 50% or more and less than 80%.)
UV prevent effect (sunburn; Cream, ultraviolet absorbent 0.1 wt %): A (Subject of remarkable effect or positive effect is 80% or more.)
UV prevent effect (sunburn; Cream, ultraviolet absorbent 1 wt %): A (Subject of remarkable effect or positive effect is 80% or more.)
UV prevent effect (sunburn; Cream, ultraviolet absorbent 5 wt %): A (Subject of remarkable effect or positive effect is 80% or more.)
UV prevent effect (sunburn; Cream, ultraviolet absorbent 10 wt %): A (Subject of remarkable effect or positive effect is 80% or more.)
UV prevent effect (sunburn; Cream, ultraviolet absorbent 20 wt %): A (Subject of remarkable effect or positive effect is 80% or more.)
UV prevent effect (sunburn; Lotion, ultraviolet absorbent 0.0005 wt %): C (Subject of remarkable effect or positive effect is 30% or more and less than 50%.)
UV prevent effect (sunburn; Lotion, ultraviolet absorbent 0.001 wt %): B (Subject of remarkable effect or positive effect is 50% or more and less than 80%.)
UV prevent effect (sunburn; Lotion, ultraviolet absorbent 0.01 wt %): A (Subject of remarkable effect or positive effect is 80% or more.)
UV prevent effect (sunburn; Lotion, ultraviolet absorbent 1 wt %): A (Subject of remarkable effect or positive effect is 80% or more.)
UV prevent effect (sunburn; Lotion, ultraviolet absorbent 5 wt %): A (Subject of remarkable effect or positive effect is 80% or more.)
UV prevent effect (sunburn; Lotion, ultraviolet absorbent 10 wt %): A (Subject of remarkable effect or positive effect is 80% or more.)
UV prevent effect (sunburn; Lotion, ultraviolet absorbent 20 wt %): A (Subject of remarkable effect or positive effect is 80% or more.)
Sunlight exposure (80 MJ) Appearance [1, 3]: A
Sunlight exposure (80 MJ) Residual yield [%] [1, 3]: 99.3%
Sunlight exposure (80 MJ) Appearance [1, 4]: A
Sunlight exposure (80 MJ) Residual yield [%] [1, 4]: 98.8%
Sunlight exposure (80 MJ) Appearance [1, 5]: A
Sunlight exposure (80 MJ) Residual yield [%] [1, 5]: 100.3%
Sunlight exposure (80 MJ) Appearance [1, 6]: A
Sunlight exposure (80 MJ) Residual yield [%] [1, 6]: 99.4%
Sunlight exposure (80 MJ) Appearance ([1]; drug Salicylic acid 0.1): A
Sunlight exposure (80 MJ) Residual yield [%] ([1]; drug Salicylic acid 0.1): 100.3%
appearance changes of the composition [1, 7]: small
residual yield of a drug [1, 7]: very high in comparison with other photostabilizers
smell change ([2]; base perfume, Table 29): very small
Sunlight exposure (80 MJ) Smell evaluation ([2]; natural perfume Bergamot oil 0.03, photostabilizer 0.05 + Trisodium ethylenediamine tetraacetate 0.03): A
Sunlight exposure (80 MJ) Smell evaluation ([2]; natural perfume Bergamot oil 0.03, photostabilizer 0.05, no sequestering agent): B
Sunlight exposure (80 MJ) Smell evaluation ([2]; natural perfume Jasmine oil 0.03, photostabilizer 0.02 + Sodium metaphosphate 0.03): A
Sunlight exposure (80 MJ) Smell evaluation ([2]; natural perfume Jasmine oil 0.03, photostabilizer 0.02, no sequestering agent): B
Sunlight exposure (80 MJ) Smell evaluation ([2]; natural perfume Lavender oil 0.03, photostabilizer 0.02 + Trisodium hydroxyethyl ethylenediamine triacetate 0.03): A
Sunlight exposure (80 MJ) Smell evaluation ([2]; natural perfume Lavender oil 0.03, photostabilizer 0.02, no sequestering agent): B
Sunlight exposure (80 MJ) Smell evaluation ([2]; natural perfume Musk oil 0.03, photostabilizer 0.1 + Sodium metaphosphate 0.03): A
Sunlight exposure (80 MJ) Smell evaluation ([2]; natural perfume Musk oil 0.03, photostabilizer 0.1, no sequestering agent): B
Sunlight exposure (80 MJ) Smell evaluation ([2]; natural perfume Orange oil 0.03, photostabilizer 0.05 + Sodium metaphosphate 0.03): A
Sunlight exposure (80 MJ) Smell evaluation ([2]; natural perfume Orange oil 0.03, photostabilizer 0.05, no sequestering agent): B
Sunlight exposure (80 MJ) Smell evaluation ([2]; natural perfume Peppermint oil 0.03, photostabilizer 0.01 + Trisodium ethylenediamine triacetate 0.03): A
Sunlight exposure (80 MJ) Smell evaluation ([2]; natural perfume Peppermint oil 0.03, photostabilizer 0.01, no sequestering agent): B
Sunlight exposure (80 MJ) Smell evaluation ([2]; natural perfume Rose oil 0.03, photostabilizer 0.02 + Trisodium ethylenediamine tetraacetate 0.03): A
Sunlight exposure (80 MJ) Smell evaluation ([2]; natural perfume Rose oil 0.03, photostabilizer 0.02, no sequestering agent): B
Sunlight exposure (80 MJ) Smell evaluation ([2]; natural perfume Ylang ylang oil 0.03, photostabilizer 0.02 + Trisodium hydroxyethyl ethylenediamine triacetate 0.03): A
Sunlight exposure (80 MJ) Smell evaluation ([2]; natural perfume Ylang ylang oil 0.03, photostabilizer 0.02, no sequestering agent): B
smell change ([2]; natural perfume, Table 27): very small
Sunlight exposure (80 MJ) Smell evaluation ([2]; perfume Aldehyde 0.03, photostabilizer 0.05 + Trisodium hydroxyethyl ethylenediamine triacetate 0.03): A
Sunlight exposure (80 MJ) Smell evaluation ([2]; perfume Aldehyde 0.03, photostabilizer 0.05, no sequestering agent): B
Sunlight exposure (80 MJ) Smell evaluation ([2]; perfume Animal 0.03, photostabilizer 0.1 + Trisodium ethylenediamine tetraacetate 0.03): A
Sunlight exposure (80 MJ) Smell evaluation ([2]; perfume Animal 0.03, photostabilizer 0.1, no sequestering agent): B
Sunlight exposure (80 MJ) Smell evaluation ([2]; perfume Fruity 0.03, photostabilizer 0.03 + Sodium metaphosphate 0.03): A
Sunlight exposure (80 MJ) Smell evaluation ([2]; perfume Fruity 0.03, photostabilizer 0.03, no sequestering agent): B
Sunlight exposure (80 MJ) Smell evaluation ([2]; perfume Green 0.03, photostabilizer 0.01 + Trisodium hydroxyethyl ethylenediamine triacetate 0.03): A
Sunlight exposure (80 MJ) Smell evaluation ([2]; perfume Green 0.03, photostabilizer 0.01, no sequestering agent): B
Sunlight exposure (80 MJ) Smell evaluation ([2]; perfume Jasmine 0.03, photostabilizer 0.02 + Trisodium ethylenediamine tetraacetate 0.03): A
Sunlight exposure (80 MJ) Smell evaluation ([2]; perfume Jasmine 0.03, photostabilizer 0.02, no sequestering agent): B
Sunlight exposure (80 MJ) Smell evaluation ([2]; perfume Muguet 0.03, photostabilizer 0.02 + Sodium metaphosphate 0.03): A
Sunlight exposure (80 MJ) Smell evaluation ([2]; perfume Muguet 0.03, photostabilizer 0.02, no sequestering agent): B
Sunlight exposure (80 MJ) Smell evaluation ([2]; perfume Oriental 0.03, photostabilizer 0.01 + Trisodium ethylenediamine tetraacetate 0.03): A
Sunlight exposure (80 MJ) Smell evaluation ([2]; perfume Oriental 0.03, photostabilizer 0.01, no sequestering agent): B
Sunlight exposure (80 MJ) Smell evaluation ([2]; perfume Rose 0.03, photostabilizer 0.02 + Trisodium hydroxyethyl ethylenediamine triacetate 0.03): A
Sunlight exposure (80 MJ) Smell evaluation ([2]; perfume Rose 0.03, photostabilizer 0.02, no sequestering agent): B
Sunlight exposure (80 MJ) Smell evaluation ([2]; synthetic perfume Benzyl benzoate 0.03, photostabilizer 0.02 + Trisodium hydroxyethyl ethylenediamine triacetate 0.03): A
Sunlight exposure (80 MJ) Smell evaluation ([2]; synthetic perfume Benzyl benzoate 0.03, photostabilizer 0.02, no sequestering agent): B
Sunlight exposure (80 MJ) Smell evaluation ([2]; synthetic perfume Citral 0.03, photostabilizer 0.01 + Trisodium hydroxyethyl ethylenediamine triacetate 0.03): A
Sunlight exposure (80 MJ) Smell evaluation ([2]; synthetic perfume Citral 0.03, photostabilizer 0.01, no sequestering agent): B
Sunlight exposure (80 MJ) Smell evaluation ([2]; synthetic perfume Lilial 0.03, photostabilizer 0.1 + Sodium metaphosphate 0.03): A
Sunlight exposure (80 MJ) Smell evaluation ([2]; synthetic perfume Lilial 0.03, photostabilizer 0.1, no sequestering agent): B
Sunlight exposure (80 MJ) Smell evaluation ([2]; synthetic perfume Limonene 0.03, photostabilizer 0.02 + Trisodium hydroxyethyl ethylenediamine triacetate 0.03): A
Sunlight exposure (80 MJ) Smell evaluation ([2]; synthetic perfume Limonene 0.03, photostabilizer 0.02, no sequestering agent): B
Sunlight exposure (80 MJ) Smell evaluation ([2]; synthetic perfume Oranthiol 0.03, photostabilizer 0.05 + Sodium metaphosphate 0.03): A
Sunlight exposure (80 MJ) Smell evaluation ([2]; synthetic perfume Oranthiol 0.03, photostabilizer 0.05, no sequestering agent): B
Sunlight exposure (80 MJ) Smell evaluation ([2]; synthetic perfume Rose oxide 0.03, photostabilizer 0.05 + Trisodium ethylenediamine tetraacetate 0.03): A
Sunlight exposure (80 MJ) Smell evaluation ([2]; synthetic perfume Rose oxide 0.03, photostabilizer 0.05, no sequestering agent): B
Sunlight exposure (80 MJ) Smell evaluation ([2]; synthetic perfume cis-3-Hexenol 0.03, photostabilizer 0.02 + Trisodium ethylenediamine tetraacetate 0.03): A
Sunlight exposure (80 MJ) Smell evaluation ([2]; synthetic perfume cis-3-Hexenol 0.03, photostabilizer 0.02, no sequestering agent): B
Sunlight exposure (80 MJ) Smell evaluation ([2]; synthetic perfume β-ionone 0.03, photostabilizer 0.01 + Trisodium ethylenediamine tetraacetate 0.03): A
Sunlight exposure (80 MJ) Smell evaluation ([2]; synthetic perfume β-ionone 0.03, photostabilizer 0.01, no sequestering agent): B
smell change ([2]; synthetic perfume, Table 28): very small
melting point: 256 to 257 °C (dec.)
